Experiments:
STAT6 = STAT6 transcriptional activity reporter (luciferase) assay in HepG2 cells; assay type: cell-based, human; conditions: HepG2, 10 ng IL-4, PLAG 0.01-10 μg/ml, 12 hours
Experimental: By using STAT6 inhibitor (S6I), it is confirmed that the reduction of Complement 3 in HepG2 cells (human hepatocyte cell line) is regulated by STAT6. […] It is also confirmed that PLAG has selective efficacy on STAT6 over STAT1. FIG. 1 presents graphs showing STAT1 and STAT6 transcriptional activity in the PLAG treated HepG2 cells. NC refers to the unstimulated control cell. For the STAT1 assay, gene transfected HepG2 (human hepatocyte cell line) is treated with 10 ng of IFN-γ and serially diluted PLAG is added (0.01 μg/ml, 0.1 μg/ml, 1 μg/ml, and 10 μg/ml as shown) to see its effect on gene expression in the stimulated cell. For the STAT6 assay, gene transfected HepG2 cells are treated with 10 ng of IL-4 and again serially diluted PLAG is added (0.01 μg/ml, 0.1 μg/ml, 1 μg/ml, and 10 μg/ml as shown) to see its effect on gene expression in the stimulated cell. The assay is carried out following 12 hours incubation of treated cells.

platelets = assay: Lipopolysaccharide-induced platelet reduction in mice; assay type: in vivo; conditions: 15 hours
Experimental: Mice are injected with 100 mg/kg phenylhydrazine (PHZ), i.p., to induce anemia and reduction of platelets. 5 mg/kg PLAG is administered to the mice orally and blood samples are taken at 3 and 13 days after. In addition, for comparison, normal mice which are not treated with phenylhydrazine are prepared as a normal group, and mice treated with PHZ and olive oil instead of PLAG are prepared as a control group. The blood samples taken from the mice are treated with 0.5 ml EDTA (Minicollect tube, Greiner bio-one, Austria) and concentration of platelet is measured using automated blood sample analyzer BC-6800 (Mindray, Shenzhen, China) by number of platelet per […] (k: 1,000).
The experiment is repeated using Tamoxifen (Tam), an anticancer agent, injected at the amount of 100 mg/kg, or lipopolysaccharide (LPS), an inflammation inducer, at the amount of 1 mg/kg to induce platelet reduction. Platelet concentration is measured 15 hours after PLAG treatment. For comparison, olive oil and PBS are used instead of PLAG as controls, respectively for the Tamoxifen and lipopolysaccharide experiment.

bone marrow-derived HSC = assay: In vitro colony formation in bone marrow-derived HSC; assay type: cell-based
Complement 3 = Complement 3 activation by chemotherapeutic agents in mouse model; assay type: in vivo; conditions: mice, Gemcitabine, Cyclophosphamide or Tamoxifen plus PLAG
Experimental: The effect of PLAG for treatment of neutropenia and thrombocytopenia induced by chemotherapy (CIN) is evaluated in an animal model. Anti-cancer agents (Gemcitabine 50 mg/kg, Cyclosphosphamide 100 mg/kg, or Tamoxifen 50 mg/kg) are dosed daily for 3 weeks; PLAG is also administered 50 mg/kg daily for 3 weeks. After three weeks, neutrophils are harvested and counted with Auto Hematology Analyzer BC-5300.
It is believed that the neutropenia and thrombocytopenia of these agents and other chemotherapeutic agents may be due at least in part to a specific complement-mediated toxicity. This is seen in FIG. 6.

[1] = stated as known; cited from earlier work
C3 [2] = assay: C3 in culture supernatant of HepG2 cells by ELISA; assay type: cell-based, human; conditions: HepG2, PLAG 1 to 100 μg/ml, IL-4 and TNF-α, 18 hr
Experimental: The incubated HepG2 cell lines are treated with PLAG (1˜100 μg/ml), followed by IL-4 and TNF-α, reacted for 1 hour, incubated for 18 hours at 37° C. and the supernatant isolated. Quantitation of the amount of C3 in the cellular culture medium (supernatant) from HepG2 cells is performed by ELISA using a commercially available monoclonal antibody (mAb, R&D Systems) and the manufacture's protocol; the results are presented in FIG. 3. C3 is expressed spontaneously under in vitro culture condition using 10% FCS added to HepG2 cells incubated for 12 hr. The cells are treated with different doses of PLAG from 1 to 100 μg/ml (Panel A, Panel B) or 10 and 100 μg/ml of S6I (Panel C), reacted with IL-4 and TNF-α for 1 hr and then incubated for 18 hr at 37° C. Cellular viability is confirmed using the WST-1 assay (Panel A).

C3 [3] = assay: C3 expression (RT-PCR) in IL-4/TNF-α treated HMC-1 cells; assay type: cell-based, human; conditions: HMC-1 cells treated with IL-4 and TNF-α; PLAG 0.1 and 1 μg/mL
Experimental: A blood cell line, HMC-1 (human mast cell, American Type Culture Collection, ATCC, Rockville, Md.) is incubated and maintained at 37° C. under 5% CO2 humid conditions. The medium is IMDM (Life Technologies, Karlsruhe, Germany) containing 10% Fetal Calf Serum (FCS, HyClone, Logan, Utah), 2 mM […], 100 μg/ml penicillin, 100 μg/ml streptomycin (Life Technologies). The cultured HMC-1 cells (1×10^6 cell/ml) are pre-treated with 0.1 and 1 μg/mL concentration of PLAG, followed by treating with IL-4 (5 ng) and/or TNF-α (10 ng) to induce cellular activities.
The expressed C3 and its mRNA level change are observed by using RT-PCR (Reverse Transcriptase Polymerase Chain Reaction). The RT-PCR is carried out as follows: the total RNA is separated by the standard protocol and cDNA is synthesized using AccuScript High Fidelity 1st Strand cDNA Synthesis Kit (Stratagene) by the manufacturer's instructions. Two-step RT-PCR reaction is conducted using Oligo-dT primer and reverse transcriptase, pair of primer and Taq polymerase (Takara, Shiga, Japan). […] The product of PCR is separated using 1.5% agarose gel, dyed with ethidium bromide (EtBr), and visualized with Gel Doc 2000 UV trans-illuminator (Bio-Rad Laboratories, Hercules, Calif., USA), and the experimental data is analyzed using Quantity One software (Bio-Rad Laboratories).

SMILES: CCCCC/C=C\C/C=C\CCCCCCCC(=O)OC(COC(C)=O)COC(=O)CCCCCCCCCCCCCCC (racemic) [PLAG, 1-palmitoyl-2-linoleoyl-3-acetylglycerol]
- transcriptional activity of STAT6 (STAT6): gradually decreased
- Platelet Conc. (platelets; LPS 1 mg/kg + PLAG 1 mg/kg): 450.00 k/ul
- Platelet Conc. (platelets; LPS 1 mg/kg + PLAG 2 mg/kg): 553.33 k/ul
- colony formation (bone marrow-derived HSC): increased colony formation
- Complement 3 activation by chemotherapeutic agents (Complement 3): largely blocked
- toxicity in GLP toxicity test [1]: no toxicity
- expression of C3 in supernatant (ELISA) (C3 [2]): decreased dose-dependently
- expression of C3 (C3 [3]): suppressed by PLAG on a concentration dependent basis
